# Assay results reported in ChEMBL document CHEMBL5370642, “Synthesis and Bioevaluation of 3-(Arylmethylene)indole Derivatives: Discovery of a Novel ALK Modulator with Antiglioblastoma Activities” (J Med Chem, 2023).
# Calls of active or inactive are those of the source. The calls are words filed in the database; no cut-off is given here.
# Key:
# GL261 [1] = test: Induction of apoptosis in mouse GL261 cells assessed as increase in cleaved PARP level measured at 0.5 to 2 uM after 24 hrs by Western blot analysis; type: functional, cell-based; conditions: dose 0.5-2 µM
# GL261 [2] = test: Induction of autophagy in mouse GL261 cells assessed as decrease in mTOR phosphorylation at 0.5 to 2 uM incubated for 24 hrs by Western blot analysis; type: functional, cell-based; conditions: dose 0.5-2 µM
# [3] = Apparent volume of distribution in C57BL6/J mouse at 5 mg/kg, iv measured upto 24 hrs by LC-MS/MS analysis; type: ADME, organism-based; conditions: in vivo, read-out: Vz
# GL261 [4] = test: In vivo induction of autophagy in mouse GL261 cells transfected with mRFP-GFPLC3 adenovirus allografted in C57BL/6J mouse model assessed as LC3 puncta in tumor tissue at 2.5 to 5 mg/kg, ip by immunofluorescence assay; type: functional, organism-based; conditions: dose 2.5-5 mg/kg
# U-87 MG [5] = test: Anti-proliferative activity against human U-87 MG cells assessed as cell viability incubated for 2 hrs by CCK8 assay; type: functional, cell-based, U-87MG ATCC
# [6] = biological target: T1, ALK tyrosine kinase receptor (Homo sapiens, UniProt Q9UM73); conditions: U-87 MG, dose 0.5-2 µM, time 24.0 hrs
# Target sequence in this assay (Q9UM73 19-1620 limits assumed): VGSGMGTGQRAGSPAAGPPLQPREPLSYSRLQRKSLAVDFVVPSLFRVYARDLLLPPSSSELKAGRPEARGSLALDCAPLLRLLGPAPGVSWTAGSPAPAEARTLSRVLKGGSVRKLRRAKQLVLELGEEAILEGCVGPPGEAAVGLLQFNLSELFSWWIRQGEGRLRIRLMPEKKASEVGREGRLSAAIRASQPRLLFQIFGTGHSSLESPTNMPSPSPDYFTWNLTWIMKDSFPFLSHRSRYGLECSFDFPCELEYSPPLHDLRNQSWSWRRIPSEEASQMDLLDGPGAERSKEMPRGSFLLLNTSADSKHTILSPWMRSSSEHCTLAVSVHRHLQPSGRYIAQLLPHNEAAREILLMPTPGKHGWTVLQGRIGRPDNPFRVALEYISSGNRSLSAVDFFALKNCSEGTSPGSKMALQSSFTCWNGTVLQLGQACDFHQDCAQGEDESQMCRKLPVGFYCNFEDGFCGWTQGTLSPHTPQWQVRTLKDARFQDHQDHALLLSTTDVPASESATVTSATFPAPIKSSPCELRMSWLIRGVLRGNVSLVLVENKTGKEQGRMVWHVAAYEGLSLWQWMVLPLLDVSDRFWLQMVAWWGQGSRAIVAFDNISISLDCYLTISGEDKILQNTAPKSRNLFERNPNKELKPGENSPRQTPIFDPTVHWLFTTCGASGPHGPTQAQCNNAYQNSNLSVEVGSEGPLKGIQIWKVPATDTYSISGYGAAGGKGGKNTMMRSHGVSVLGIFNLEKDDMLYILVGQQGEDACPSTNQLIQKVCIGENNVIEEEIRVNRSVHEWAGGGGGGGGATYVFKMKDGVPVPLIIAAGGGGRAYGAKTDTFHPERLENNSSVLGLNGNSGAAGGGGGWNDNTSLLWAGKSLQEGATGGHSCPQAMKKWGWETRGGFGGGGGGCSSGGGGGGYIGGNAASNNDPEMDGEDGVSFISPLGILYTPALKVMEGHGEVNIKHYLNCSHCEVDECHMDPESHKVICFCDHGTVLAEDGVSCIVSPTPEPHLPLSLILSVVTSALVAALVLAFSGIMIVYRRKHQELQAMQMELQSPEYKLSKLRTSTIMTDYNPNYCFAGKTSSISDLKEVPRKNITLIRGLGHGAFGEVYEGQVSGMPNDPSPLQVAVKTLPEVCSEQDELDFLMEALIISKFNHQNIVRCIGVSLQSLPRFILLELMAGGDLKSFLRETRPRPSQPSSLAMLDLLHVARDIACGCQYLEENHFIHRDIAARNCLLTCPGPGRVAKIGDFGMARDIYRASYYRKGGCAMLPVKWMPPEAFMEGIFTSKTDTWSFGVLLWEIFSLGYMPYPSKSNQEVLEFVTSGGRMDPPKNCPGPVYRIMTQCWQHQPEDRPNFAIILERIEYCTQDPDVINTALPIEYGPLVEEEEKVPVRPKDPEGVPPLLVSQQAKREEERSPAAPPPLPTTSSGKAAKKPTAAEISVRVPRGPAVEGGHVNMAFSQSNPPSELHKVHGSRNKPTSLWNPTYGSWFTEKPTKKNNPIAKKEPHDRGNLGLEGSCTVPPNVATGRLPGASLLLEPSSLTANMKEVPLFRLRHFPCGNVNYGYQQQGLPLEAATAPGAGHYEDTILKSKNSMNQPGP
# [7] = Drug uptake in C57BL6/J mouse brain at 20 mg/kg, ip measured after 2 hrs by LC-MS/MS analysis; type: ADME, organism-based; conditions: in vivo
# GL261 [8] = test: Induction of cell cycle arrest in mouse GL261 cells assessed as accumulation of cells at S phase at 0.5 to 2 uM incubated for 24 to 72 hrs by flow cytometry; type: functional; conditions: dose 0.5-2 µM, time 24-72 hrs
# [9] = Bioavailability in C57BL6/J mouse at 5 mg/kg, […] measured upto 24 hrs by LC-MS/MS analysis; type: ADME, organism-based; conditions: in vivo
# GL261 [10] = test: Anti glioblastoma activity against mouse GL261-mNeonGreenLuc cells stereotaxically injected in corpus striatum of orthotopic glioblastoma mouse model assessed as shrunken tumor tissue at 5 mg/kg, ip once daily measured on day 21 by H and E staining analysis; type: functional, organism-based
# GL261 [11] = test: Induction of apoptosis in mouse GL261 cells assessed as increase in annexin-V+/PI- cells incubated for 24 to 72 hrs by flow cytometry; type: functional, cell-based; conditions: dose 0.5-2 µM, time 24-72 hrs
# [12] = Cmax in C57BL6/J mouse at 5 mg/kg, iv measured upto 24 hrs by LC-MS/MS analysis; type: ADME, organism-based; set-up: dose 5 mg/kg, time < 24 hrs, route iv; conditions: in vivo
# U-87 MG [13] = test: Anti-proliferative activity against human U-87 MG cells assessed as decrease in cell viability at 0.5 to 10 uM by CCK8 assay; type: functional, cell-based; conditions: U-87MG ATCC, dose 0.5-10 µM, time 24-72 hrs, TDE = time-dependent effect
# HeLa = test: Anti-proliferative activity against human HeLa cells assessed as inhibition rate at 160 uM incubated for 24 to 72 hrs by CCK8 assay relative to control; type: functional; conditions: time 24-72 hrs
# [14] = AUC (0 to 8hrs) in C57BL6/J mouse at 5 mg/kg, iv measured upto 24 hrs by LC-MS/MS analysis; type: ADME, organism-based; set-up: dose 5 mg/kg, time < 24 hrs, route iv; conditions: in vivo
# GL261 [15] = test: In vivo induction of apoptosis in mouse GL261 cells transfected with mRFP-GFPLC3 adenovirus allografted in C57BL/6J mouse model assessed as increase in cleaved caspase 3 level in tumor tissue at 2.5 to 5 mg/kg, ip by immunofluorescence assay; type: functional, organism-based; conditions: dose 2.5-5 mg/kg
# GL261 [16] = test: Anti glioblastoma activity against mouse GL261-mNeonGreenLuc cells stereotaxically injected in corpus striatum of orthotopic glioblastoma mouse model assessed as inhibition of tumor growth at 5 mg/kg, ip once daily measured on day 21 by immunofluorescence imaging analysis; type: functional, organism-based
# GL261 [17] = test: Induction of autophagy in mouse GL261 cells assessed as cell viability pretreated with 5 uM CQ for 4 hrs followed by treated at 0.5 to 2 uM measured after 48 hrs by CCK8 assay; type: functional, cell-based
# [18] = AUC (0 to 8hrs) in C57BL6/J mouse at 5 mg/kg, ip measured upto 24 hrs by LC-MS/MS analysis; type: ADME, organism-based; set-up: dose 5 mg/kg, time < 24 hrs, route ip; conditions: in vivo
# GL261 [19] = test: Induction of autophagy in mouse GL261 cells transfected with mRFP-GFPLC3 adenovirus assessed as yellow fluorescence at 2 uM incubated for 48 hrs by confocal microscopy; type: functional, cell-based
# GL261 [20] = test: Induction of apoptosis in mouse GL261 cells assessed as increase in annexin-V+/PI- cells at 0.5 to 2 uM by flow cytometry; type: functional, cell-based; conditions: dose 0.5-2 µM, time 24-72 hrs, TDE = time-dependent effect
# U-87 MG [21] = test: Anti-proliferative activity against human U-87 MG cells assessed as decrease in cell viability incubated for 24 to 72 hrs by CCK8 assay; type: functional, cell-based; conditions: U-87MG ATCC, dose 0.5-10 µM, time 24-72 hrs
# [22] = biological target: ALK tyrosine kinase receptor (Mus musculus) (UniProt P97793); test: Binding affinity to ALK in mouse GL261 cell lysate assessed as immunoprecipitation measured after overnight incubation by pull-down assay; type: subcellular
# Chain of ALK tyrosine kinase receptor (Mus musculus) (P97793 whole entry): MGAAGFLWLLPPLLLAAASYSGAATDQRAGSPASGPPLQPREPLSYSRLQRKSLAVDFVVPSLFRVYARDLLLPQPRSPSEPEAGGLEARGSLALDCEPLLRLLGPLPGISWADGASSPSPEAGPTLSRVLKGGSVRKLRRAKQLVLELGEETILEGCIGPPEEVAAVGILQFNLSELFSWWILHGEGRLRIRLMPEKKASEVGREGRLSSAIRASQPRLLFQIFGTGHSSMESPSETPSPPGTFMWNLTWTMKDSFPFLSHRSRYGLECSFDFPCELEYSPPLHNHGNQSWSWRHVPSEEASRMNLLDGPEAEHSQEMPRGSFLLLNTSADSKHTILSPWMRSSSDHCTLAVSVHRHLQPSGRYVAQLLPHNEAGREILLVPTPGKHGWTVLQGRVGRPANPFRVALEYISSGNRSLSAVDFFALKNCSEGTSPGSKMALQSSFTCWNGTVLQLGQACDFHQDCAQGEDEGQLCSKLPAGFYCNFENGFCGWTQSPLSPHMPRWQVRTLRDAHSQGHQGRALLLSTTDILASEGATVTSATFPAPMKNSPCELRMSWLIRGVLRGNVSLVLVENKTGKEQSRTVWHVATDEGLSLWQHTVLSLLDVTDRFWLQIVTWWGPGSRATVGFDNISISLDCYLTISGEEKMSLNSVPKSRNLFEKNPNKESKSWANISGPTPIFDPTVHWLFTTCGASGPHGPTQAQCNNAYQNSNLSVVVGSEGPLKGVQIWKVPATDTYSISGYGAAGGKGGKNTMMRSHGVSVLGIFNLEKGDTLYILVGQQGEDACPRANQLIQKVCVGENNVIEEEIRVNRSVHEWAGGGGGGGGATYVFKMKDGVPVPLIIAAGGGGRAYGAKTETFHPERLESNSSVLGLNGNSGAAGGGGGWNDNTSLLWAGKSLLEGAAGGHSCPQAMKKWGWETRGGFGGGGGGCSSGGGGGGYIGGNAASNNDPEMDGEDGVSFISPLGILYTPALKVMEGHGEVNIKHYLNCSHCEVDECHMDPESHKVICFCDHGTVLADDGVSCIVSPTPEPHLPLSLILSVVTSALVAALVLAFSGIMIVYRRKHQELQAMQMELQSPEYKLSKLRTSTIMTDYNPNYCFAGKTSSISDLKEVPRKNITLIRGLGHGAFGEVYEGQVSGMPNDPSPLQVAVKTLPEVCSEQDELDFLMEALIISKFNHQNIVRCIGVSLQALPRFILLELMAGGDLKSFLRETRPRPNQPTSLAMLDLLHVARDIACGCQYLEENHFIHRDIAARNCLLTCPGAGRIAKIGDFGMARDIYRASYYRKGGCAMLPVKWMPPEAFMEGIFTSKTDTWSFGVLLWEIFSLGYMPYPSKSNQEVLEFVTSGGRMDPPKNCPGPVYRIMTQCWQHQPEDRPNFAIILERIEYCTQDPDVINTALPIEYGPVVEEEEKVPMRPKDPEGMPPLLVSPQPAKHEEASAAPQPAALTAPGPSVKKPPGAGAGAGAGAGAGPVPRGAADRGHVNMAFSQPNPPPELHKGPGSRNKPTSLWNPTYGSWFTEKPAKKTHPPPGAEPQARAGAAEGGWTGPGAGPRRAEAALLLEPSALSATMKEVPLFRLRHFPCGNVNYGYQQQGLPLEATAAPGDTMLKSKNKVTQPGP
# [23] = AUC (0 to infinity) in C57BL6/J mouse at 5 mg/kg, ip measured upto 24 hrs by LC-MS/MS analysis; type: ADME, organism-based; set-up: time < 24 hrs, dose 5 mg/kg, route ip; conditions: in vivo
# [24] = MRT (0 to infinity) in C57BL6/J mouse at 5 mg/kg, ip measured upto 24 hrs by LC-MS/MS analysis; type: ADME, organism-based; conditions: in vivo
# [25] = MRT (0 to 8hrs) in C57BL6/J mouse at 5 mg/kg, iv measured upto 24 hrs by LC-MS/MS analysis; type: ADME, organism-based; conditions: in vivo
# GL261 [26] = test: Anti-glioblastoma activity against mouse GL261-mNeonGreenLuc cells stereotaxically injected in corpus striatum of orthotopic glioblastoma mouse model assessed as decrease in Ki67 expression in GFP-labeled glioblastoma tissue at 5 mg/kg, ip once daily measured on day 21 by confocal microscopy; type: functional, organism-based
# GL261 [27] = test: Anti-proliferative activity against mouse GL261 cells assessed as cell viability incubated for 2 hrs by CCK8 assay; type: functional, cell-based; conditions: GL261, 2 h
# GL261 [28] = test: Anti-proliferative activity against mouse GL261 cells assessed as inhibition rate at 2 uM incubated for 72 hrs by CCK8 assay relative to control; type: functional
# GL261 [29] = test: Induction of autophagy in mouse GL261 cells assessed as increase in LC3BII levels at 0.5 to 2 uM incubated for 24 hrs by Western blot analysis; type: functional, cell-based; conditions: dose 0.5-2 µM
# [30] = Volume of distribution at steady state in C57BL6/J mouse at 5 mg/kg, iv measured upto 24 hrs by LC-MS/MS analysis; type: ADME, organism-based; conditions: in vivo, read-out: Vdss
# GL261 [31] = test: Induction of apoptosis in mouse GL261 cells assessed as necrotic cells measured at 0.5 to 2 uM after 72 hrs by flow cytometry; type: functional, cell-based; conditions: dose 0.5-2 µM
# [32] = biological target: T1, ALK tyrosine kinase receptor; test: Inhibition of human ALK using GF-IRtide as substrate by Kinase-Glo Plus luminescence kinase assay
# Target sequence in this assay (Q9UM73 whole entry): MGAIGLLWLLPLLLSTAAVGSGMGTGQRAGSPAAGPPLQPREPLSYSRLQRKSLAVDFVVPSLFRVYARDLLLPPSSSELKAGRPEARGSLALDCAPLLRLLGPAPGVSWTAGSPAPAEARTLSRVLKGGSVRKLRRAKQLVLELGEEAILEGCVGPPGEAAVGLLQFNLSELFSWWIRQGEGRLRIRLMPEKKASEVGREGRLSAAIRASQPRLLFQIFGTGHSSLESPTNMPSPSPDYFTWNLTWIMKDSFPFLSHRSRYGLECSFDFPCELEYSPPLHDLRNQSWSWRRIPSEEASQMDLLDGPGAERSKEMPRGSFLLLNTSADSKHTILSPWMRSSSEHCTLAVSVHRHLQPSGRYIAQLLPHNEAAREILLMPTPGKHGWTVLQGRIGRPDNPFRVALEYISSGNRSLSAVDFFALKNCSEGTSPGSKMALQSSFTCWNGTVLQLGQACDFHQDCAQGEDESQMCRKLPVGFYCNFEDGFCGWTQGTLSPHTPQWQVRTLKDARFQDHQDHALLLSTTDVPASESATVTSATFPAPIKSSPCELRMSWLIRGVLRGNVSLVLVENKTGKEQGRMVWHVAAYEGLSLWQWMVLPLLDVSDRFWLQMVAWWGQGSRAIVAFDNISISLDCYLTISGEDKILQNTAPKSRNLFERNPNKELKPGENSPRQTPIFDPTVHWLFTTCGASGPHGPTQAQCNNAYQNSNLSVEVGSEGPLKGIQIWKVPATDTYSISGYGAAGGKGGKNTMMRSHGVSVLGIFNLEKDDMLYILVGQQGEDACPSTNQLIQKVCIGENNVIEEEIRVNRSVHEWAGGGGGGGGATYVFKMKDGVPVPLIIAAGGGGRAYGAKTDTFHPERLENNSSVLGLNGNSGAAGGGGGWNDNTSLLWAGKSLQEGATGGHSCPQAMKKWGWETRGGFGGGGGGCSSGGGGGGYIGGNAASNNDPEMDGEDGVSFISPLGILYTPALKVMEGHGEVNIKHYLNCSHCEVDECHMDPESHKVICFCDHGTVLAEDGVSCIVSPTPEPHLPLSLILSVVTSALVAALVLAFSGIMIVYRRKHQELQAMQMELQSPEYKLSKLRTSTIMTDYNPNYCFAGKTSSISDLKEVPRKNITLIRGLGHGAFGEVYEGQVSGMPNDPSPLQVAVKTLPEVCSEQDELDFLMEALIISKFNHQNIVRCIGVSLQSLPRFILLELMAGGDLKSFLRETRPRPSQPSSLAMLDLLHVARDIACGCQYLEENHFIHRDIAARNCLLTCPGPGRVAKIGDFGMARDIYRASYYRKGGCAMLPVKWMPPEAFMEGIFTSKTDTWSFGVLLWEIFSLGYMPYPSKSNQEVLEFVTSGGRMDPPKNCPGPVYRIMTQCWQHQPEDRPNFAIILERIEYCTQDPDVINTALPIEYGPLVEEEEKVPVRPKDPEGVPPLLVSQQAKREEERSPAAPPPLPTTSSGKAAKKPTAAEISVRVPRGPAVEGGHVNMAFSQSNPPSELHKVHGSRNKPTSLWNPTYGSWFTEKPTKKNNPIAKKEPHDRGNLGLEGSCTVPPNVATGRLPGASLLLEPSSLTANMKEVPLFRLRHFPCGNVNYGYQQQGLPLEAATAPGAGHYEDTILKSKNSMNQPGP
# [33] = Cmax in C57BL6/J mouse at 5 mg/kg, ip measured upto 24 hrs by LC-MS/MS analysis; type: ADME, organism-based; set-up: time < 24 hrs, dose 5 mg/kg, route ip; conditions: in vivo
# GL261 [34] = test: Induction of apoptosis in mouse GL261 cells assessed as increase in cleaved caspase 3 level measured at 0.5 to 2 uM after 24 hrs by Western blot analysis; type: functional, cell-based; conditions: dose 0.5-2 µM
# [35] = Half life in C57BL6/J mouse at 5 mg/kg, iv measured upto 24 hrs by LC-MS/MS analysis; type: ADME, organism-based; conditions: in vivo
structure (smiles),measurement,setting,value
Cc1ccc(S(=O)(=O)n2cc(Cc3cc(C)c(O)c(C)c3)c3ccccc32)cc1,Activity,GL261 [1],Active
same,Activity,GL261 [2],Active
same,Vd,[3],8.89 L/kg
same,Activity,GL261 [4],Active
same,IC50,U-87 MG [5],7.25 µM
same,inhibition,[6],Active
same,Drug uptake,[7],2.7 µmol/kg
same,Activity,GL261 [8],24.5%
same,bioavailability,[9],38.4%
same,Activity,GL261 [10],Active
same,Activity,GL261 [11],Dose-Dependent Effect
same,Cmax,[12],1980 ng/mL
same,Activity,U-87 MG [13],Tde
same,inhibition at 160 µM,HeLa,50%
same,AUC(0-t) at 24 h,[14],885 ng·h/mL
same,Activity,GL261 [15],Active
same,inhibition,GL261 [16],Active
same,Activity,GL261 [17],inactive
same,AUC(0-t) at 24 h,[18],340 ng·h/mL
same,Activity,GL261 [19],Active
same,Activity,GL261 [20],Tde
same,Activity,U-87 MG [21],Dose-Dependent Effect
same,Activity,[22],Active
same,AUC(0-inf),[23],420 ng·h/mL
same,MRT inf,[24],4.6 h
same,MRT last at 24 h,[25],0.63 h
same,Activity,GL261 [26],Active
same,IC50,GL261 [27],1.35 µM
same,inhibition at 2 µM,GL261 [28],80%
same,Activity,GL261 [29],Active
same,Vd,[30],4.59 L/kg
same,Activity,GL261 [31],Active
same,IC50,[32],7 µM
same,Cmax,[33],118 ng/mL
same,Activity,GL261 [34],Active
same,half-life,[35],1.13 h
